# “And” between values parts separate entries of the source, which are not always exact repeats. Identical values can stand only once.
# Legend:
# [1] = system: uninfected cells
# [2] = system: HIV-I IIIB; experiment: Acute infection assay, HIV core antigen ELISA (HIV-I IIIB); format: cell-based
# [3] = system: M5076-reticulum cell sarcoma; experiment: Anti-tumour activity against M5076 solid tumour (tumour weight inhibition); format: in vivo, murine; conditions: for % Tumour Weight Inhibition: 16 days after im transplant, corn oil
# Method: (§1) The in vivo anti-tumour responses of the compound according to the invention were assessed against the ascitic tumours, MAC15A murine colon adenocarcinoma and various solid tumour models. The MAC15A ascites tumour cells were transplanted into male NMR1 mice by ip innoculation at a cell density of 1 x 10^5 cells in 200µl buffer (Table I). The solid tumour models included the MAC13 and MAC16 murine colon adenocarcinomas, the B16 F1 murine melanoma and the M5076 reticulum cell sarcoma.
# (§2) Treatment commenced 3 days after ip transplant or, in the case of solid tumours such as MAC13 and MAC16, treatment commenced when average tumour volumes reached 40mm^3.
# (§3) The animals were located in both cases into groups of 5 to 8 animals.
# (§4) The animals were sacrificed after 12 days or when tumours ulcerated, tumour volume exceeded 1000mm^3 or loss of body weight exceeded 50%.
# (§5) Except where otherwise stated, the compound used was dissolved in DMSO and diluted in sterile distilled water, at appropriate concentrations before administration in a solvent volume of 200µl. Anti-tumour responses were obtained by comparing the median survival times or tumour growth inhibition against solvent controls.
# (§6) % Tumour Weight Inhibition:-
# [4] = as above; format: in vivo, murine; conditions: mouse, in vivo; ip, per day, in corn oil; M5076 study; read-out: Maximum tolerated dose
# Method: as §1, §2, §3, §4, §5, §6
# [5] = system: HIV-1RF; experiment: microbe, parasite or virus in culture; format: cell-based, human immunodeficiency virus HIV-1RF
# [6] = in vitro; conditions: CC50 (Toxicity)
# [7] = system: MAC16, murine colon adenocarcinoma; experiment: Anti-tumour activity against MAC16 (tumour weight inhibition); format: in vivo; conditions: for % Tumour Weight Inhibition: sc transplanted, day 11 after the beginning of treatment, tumour volumes at least 40mm^3 at start, corn oil
# Method: as §1, §2, §3, §4, §5, §6
# [8] = system: B16F1-murine melanoma; format: in vivo; conditions: mouse, in vivo
# [9] = system: uninfected H9 cells; experiment: Toxicity in uninfected H9 cells, 14C protein hydrolysate incorporation, four days; format: cell-based; conditions: listed under Against Chronically infected cells; average of the lines above
# Method: • (i) Acute Infection Assay. High titre virus stocks of the human immunodeficiency virus HIV-1RF were grown in H9 cells with RM1 1640 (Flow laboratories) supplemented with 10% fetal calf serum, penicillin (100IU/ml). Cell debris was removed by low speed centrifugation, and the supernatant stored at -70°C until required. In a typical assay C8166 T-lymphoblastoid CD4+ cells were incubated with 10xTCID50 HIV-1RF at 37°C for 90 minutes and then washed three times with phosphate buffered saline (PBS). Cell aliquots (2 x 10^5) were resuspended in 1.5ml growth medium in 6ml tubes, and active compounds in log dilutions [200µM to 0.2µM] were added immediately. 20mM stock solutions of each compound were made up in 70% alcohol. The compounds were stored as a powder and made up freshly in distilled water before each experiment or were stored as a […] stock solution in 70% alcohol. The final concentration of alcohol in the tissue culture medium was 1%. The cells were then incubated at 37°C in 5% CO2. […] The ELISA plates were read with a spectrophotometer. […] HIV-1 antigen in the supernatant was then measured using an ELISA. […] After 6 hours the cells were harvested and the ^14C incorporation measured. • (iii) Toxicity Assay. […] After 12, hours the cells were harvested and the ^14C incorporation measured. […] Toxicity is expressed as inhibition of uptake of ^14C protein hydrolysate. […]
# [10] = system: Chronically infected cells (H9rf); experiment: Chronically infected cell assay, HIV-1 antigen ELISA; format: cell-based; conditions: Against Chronically infected cells
# [11] = system: MAC13 murine colon adenocarcinoma; experiment: Anti-tumour activity against MAC13 (tumour weight inhibition); format: in vivo; conditions: 12 days after im transplant, corn oil
# Method: as §1, §2, §3, §4, §5, §6
# [12] = system: MAC15A (murine adenocarcinoma colon); format: in vivo, NMR1 mice; conditions: mouse, in vivo, ip
compound,measurement,setting,value
"COC(=O)c1cc([N+](=O)[O-])c(Cl)c([N+](=O)[O-])c1Cl [C3, 2,4-dichloro-3,5-dinitrobenzoic acid methyl ester]",CC50,[1],7 µM
same,SI (Selectivity Index),[2],23
same,anti-tumour activity (in words),[3],without anti-tumour activity
same,% Tumour Weight Inhibition,"[3]; 0.25 mg/kg per day ip, days 1,2,3,4,5,6,7,8,9",42%
same,% Tumour Weight Inhibition,"[3]; 0.5 mg/kg per day ip, days 1,2,3,4,5,6,7,8,9",39%
same,% Tumour Weight Inhibition,"[3]; 1.0 mg/kg per day ip, days 1,2,3,4,5,6,7,8,9",41%
same,increase in toxicity,"[3]; relative to 2,4-dichloro-3,5-dinitrobenzoic acid",10 fold
same,MTD,[4],1 mg/kg
"O=C(O)c1cc([N+](=O)[O-])c(Cl)c([N+](=O)[O-])c1Cl [C1, 2,4-dichloro-3,5-dinitrobenzoic acid]","SI (Selectivity Index), Average",[5],5
same,IC50,"[5]; Human immunodeficiency virus 1, C8166, read-out: IC50 (Antiviral), Average",11.5 µM
same,CC50,[6],30 µM
same,% Tumour Weight Inhibition,"[7]; 50 mg/kg per day ip, days 1,2,4,5,8",91%
same,% Tumour Weight Inhibition,"[7]; 75 mg/kg per day ip, days 1,2,5,8",88%
same,inhibition of tumour growth (in words),[7]; MAC16 murine colon adenocarcinoma,effectively inhibited growth
same,inhibition of tumour growth (in words),[8],effectively inhibited growth
same,SI (Selectivity Index),[2],2
same,"SI (Selectivity Index), Average",[2],3
same,IC50,"[2]; Human immunodeficiency virus 1, IIIB, read-out: IC50 (Antiviral), Average",27 µM
same,CC50,[9],63 µM
same,"SI (Selectivity Index), Average",[10]; average line,4
same,IC50,"[10]; Human immunodeficiency virus 1, 96 h, four days, single determinations, read-out: IC50 (Antiviral)",16 µM
same,% Tumour Weight Inhibition,"[11]; 50 mg/kg per day ip, days 1,2,3,4,5,6,7,8,9",39%
same,% Tumour Weight Inhibition,"[11]; 75 mg/kg per day ip, days 1,4,5",45%
same,% Tumour Weight Inhibition,"[3]; 25 mg/kg per day ip, days 1,2,4,6,9",75%
same,% Tumour Weight Inhibition,"[3]; 25 mg/kg per day sc, days 1,2,4,5,6,7,9",63%
same,% Tumour Weight Inhibition,"[3]; 50 mg/kg per day ip, days 1,4,6,9",57%
same,% Tumour Weight Inhibition,"[3]; 50 mg/kg per day sc, days 1,2,4,5,6,7,9",76%
same,% Tumour Weight Inhibition,"[3]; 75 mg/kg per day ip, days 1,4,6,9, listed as 2,4 BA",79% and 88%
same,% Tumour Weight Inhibition,"[3]; 75 mg/kg per day sc, days 1,4,5,7,9",66%
same,activity on a split-dose schedule down to (dose),[3]; by both ip and sc routes,25 mg/kg body weight
same,T/C%,[12],243%
